The text below walks through data of article PMC9966435, “Synthesis and Biological Evaluation of 3-Amidoquinuclidine Quaternary Ammonium Compounds as New Soft Antibacterial Agents” (Pharmaceuticals, 2023).

What all share (type): cell-based
Assay [1] concerns Staphylococcus aureus ATCC25923. The assay is described as follows: Broth microdilution MIC in Mueller Hinton broth. In general terms: In broth dilution the organism is exposed to a series of concentrations in liquid medium.
The test system of assay [2] is Staphylococcus aureus ATCC33591. Briefly: Broth microdilution MIC in Mueller Hinton broth.
For assay [3], the system named is Staphylococcus aureus Clinical/MRSA. The assay is described as follows: Broth microdilution MIC in Mueller Hinton broth. To be noted: for MIC: Staphylococcus aureus, MRSA, read-out: Minimum Inhibitory Concentration (MIC) Staphylococcus aureus Clinical/MRSA.
The subject of assay [4] is Bacillus cereus ATCC14579. Briefly: Broth microdilution MIC in Mueller Hinton broth.
The test system of assay [5] is Listeria monocytogenes ATCC7644. The assay is described as follows: Broth microdilution MIC in Mueller Hinton broth.
The test system of assay [6] is Enterococcus faecalis ATCC29212. The assay is described as follows: Broth microdilution MIC in Mueller Hinton broth.
The subject of assay [7] is Escherichia coli ATTC25922. Briefly: Broth microdilution MIC in Mueller Hinton broth.
Assay [8] concerns Salmonella enterica food isolate. The assay is described as follows: microbe, parasite or virus in culture. The conditions noted are these: MHB, read-out: Minimum Inhibitory Concentration (MIC) Salmonella enterica food isolate.
For assay [9], the system named is Pseudomonas aeruginosa ATTC27853. The assay is described as follows: Broth microdilution MIC in Mueller Hinton broth.
Assay [10] concerns Staphylococcus aureus ATCC 33591. The conditions noted are these: MIC in MHB vs MIC with 10 µM CCCP, S. aureus ATCC 33591.
Experimental: Bacterial susceptibility toward (±)3-amidoquinuclidine quaternary ammonium compounds was evaluated in the presence of an ATP synthesis inhibitor carbonyl cyanide 3-chlorophenylhydrazone (CCCP) (Sigma Aldrich). The minimum inhibitory concentration (MIC) of CCCP against Staphylococcus aureus ATCC 33591 (MRSA) was established before the experiment. The overnight culture of Staphylococcus aureus ATCC 33591 was diluted in tempered Mueller Hinton broth (MHB) and cultivated in the orbital shaker at 37 °C and 220 rpm. When the culture reached the preexponential phase of growth (OD600 = 0.3–0.5), it was diluted to a final concentration of 5 × 10^5 CFU/mL in MHB containing 10 µM CCCP. A total of 50 µL of prepared cell suspension was pipetted into a 96-well plate containing twofold serial dilutions of tested compounds in MHB with CCCP at a final concentration of 10 µM. Plates were incubated overnight, and the MIC reduction of tested compounds in the presence of 10 µM CCCP was recorded the following day.
Assay [11] has as its system Staphylococcus aureus ATCC 25923. Briefly: MIC in cation-adjusted Mueller Hinton broth (CA-MHB). To be noted: ATCC25923, read-out: MIC CA-MHB. The procedure:
A representative bacterial strain, Staphylococcus aureus ATCC 25923, was grown overnight in Mueller Hinton broth (MHB). The following day, the culture was diluted in tempered MHB and allowed to grow at 37 °C with constant shaking of 220 rpm. Once the bacterial culture reached the exponential growth phase (OD600 = 0.3–0.5), it was diluted in the cation-adjusted Mueller Hinton broth (CA-MHB) containing MgCl2 (10 mM) to the final cell count of 5 × 10^5 CFU/mL. The previously prepared 96-well plate contained twofold serial dilutions of the compounds to be tested, dissolved in CA-MHB, in the concentrations range of 125 µM to 0.12 µM. Then, 50 µL of the bacterial cells diluted in CA-MHB was pipetted in each well of the plate and incubated overnight at 37 °C with constant shaking at 220 rpm. The next day, the minimum inhibitory concentration (MIC) was determined as the lowest concentration of the compound that prevented supposed bacterial growth in the wells. Visually determined results of antibacterial activity were confirmed by the addition of 20 µL 2-(4-iodophenyl)-3-(4-nitrophenyl)-5-phenyltetrazolium chloride (INT) reagent (6 mg/mL). The MIC value of a drug in CA-MHB containing NaCl (85 mM) was determined using the same experimental technique.

Assay [12] shares this test system. Briefly: MIC in Dulbecco's Modified Eagle Medium (DMEM). To be noted: ATCC25923, read-out: MIC DMEM. Here is the method: The overnight culture of Staphylococcus aureus ATCC 25923 was diluted in fresh Mueller Hinton broth (MHB) and placed in an orbital shaker incubator (Gallenkamp, Cambridge, UK) at 37 °C and 220 rpm. Once the culture reached the exponential growth phase (OD600 = 0.3–0.5), cells were centrifuged (Heraeus, Biofuge primo R, Hanau, Germany) at room temperature at a speed of 4000× g. The cell pellet was resuspended in tempered Dulbecco’s Modified Eagle Medium (DMEM) to a final concentration of 5 × 10^5 CFU/mL. Then, 50 µL of as-prepared cells were added to a 96-well plate containing twofold serial dilutions of tested compounds in DMEM medium in the range of concentrations from 125 µM to 0.12 µM. The minimum inhibitory concentration (MIC) was visually assessed the next day. The MIC was determined as the lowest concentration of the substance at which no apparent bacterial growth was seen.

For assay [13] the test system is unchanged. Briefly: Time-resolved growth analysis. The procedure:
The growth kinetic experiments were performed to further investigate the efficacy of the selected 3-amidoquinnuclidine candidates. The candidates from series 1 (QC14-Me, QC14-Ally, QC16-Me, and QC16-Ally) and series 3 (QBn-C12, QBn-C14, and QBn-C16) were incubated at MIC and ½ MIC for 350 min with an appropriate number of CFU of Staphylococcus aureus ATCC 25923 at 37 °C with shaking. Time-resolved growth analysis was performed along with the control, in which bacterial growth was monitored without the presence of the antibacterial agent.
Time-resolved growth analysis was performed in the microtiter plate reader (Bio-Tek EL808, Winooski, VT, USA) by incubating the selected antibacterial agent with Staphylococcus aureus ATCC 25923. The exponentially grown culture (OD600 = 0.3–0.5) of S. aureus ATCC 25923 was diluted to a final concentration of 5 × 10^4 CFU/mL. Then, 50 µL of such prepared cell culture was added to the 96-well plates containing the MIC or ½ MIC of the compound to be tested. The plates were incubated at 37 °C for 350 min in the microplate reader with shaking. OD600 was recorded at 10 min intervals. The results obtained represent the mean of two independent experiments performed in triplicate.

Assay [14] concerns Staphylococcus aureus ATCC 25923 biofilm. The assay is described as follows: Biofilm inhibition assay (crystal violet). To be noted: ATCC25923, 12.5 μg mL−1, 48 h. The procedure: Therefore, we investigated the antibiofilm activity of the new 3-amidoquinuclidine QACs against the biofilm-forming pathogen S. aureus ATCC 25923, which causes opportunistic infections of various tissues in humans. […] Antibiofilm activity was evaluated at four different concentrations (12.5, 25, 50, and 100 μ g mL^−1), and as shown on the crystal violet heat map (CV) (Figure 3A), all compounds have the potential to inhibit biofilm formation, albeit at different concentrations.
Minimum biofilm inhibitory concentration (MBIC) was determined against Staphylococcus aureus ATCC 25923. Compounds were dissolved in MHB and serially diluted in 96-well plates with a final mass concentration ranging from 100 to 12.5 µg/mL. The exponentially grown culture (OD600 = 0.3–0.5) of S. aureus ATCC 25923 was diluted to a final concentration of 5 × 10^6 CFU/mL. Then, 50 µL of such prepared cell culture was added to the 96-well plates containing twofold dilutions of the compound to be tested. The plates were incubated for 48 h. After incubation, the broth over the biofilm was aspirated, and the plate with the biofilm was dried at 60 °C. […] Absorbance was measured at 595 nm in an optical reader. The percentage of biofilm formed was calculated by dividing the absorbance of the well containing the tested substance by the absorbance of the untreated bacterial cells and multiplying by 100.

Where [15] appears, read: MHB, read-out: Minimum Inhibitory Concentration (MIC) Staphylococcus aureus ATCC25923.
[16] abbreviates: Staphylococcus aureus, ATCC25923, read-out: Minimum Inhibitory Concentration (MIC) Staphylococcus aureus ATCC25923.
Setting [17] is: Staphylococcus aureus, ATCC33591, read-out: Minimum Inhibitory Concentration (MIC) Staphylococcus aureus ATCC33591.
Setting [18] is: Bacillus cereus, ATCC14579, read-out: Minimum Inhibitory Concentration (MIC) Bacillus cereus ATCC14579.
The mark [19] stands for this setting: Listeria monocytogenes, ATCC7644, read-out: Minimum Inhibitory Concentration (MIC) Listeria monocytogenes ATCC7644.
[20] abbreviates: Enterococcus faecalis, ATCC29212, read-out: Minimum Inhibitory Concentration (MIC) Enterococcus faecalis ATCC29212.
Setting [21] is: Escherichia coli, ATTC25922, read-out: Minimum Inhibitory Concentration (MIC) Escherichia coli ATTC25922.
Where [22] appears, read: Pseudomonas aeruginosa, ATTC27853, read-out: Minimum Inhibitory Concentration (MIC) Pseudomonas aeruginosa ATTC27853.

Each structure is given as a SMILES string. Read-outs that look alike come from different tables or passages of the source.

The term inhibition denotes how much of the control response was suppressed.

Take `CCCCCCCCCCCC[N+](C)(C)Cc1ccccc1.[Br-]` [BAB, benzyldimethyldodecylammonium bromide, reference compound]: the MIC came out at 10 µM in [1] (setting [15]); 25 µM in [2] (MHB, read-out: Minimum Inhibitory Concentration (MIC) Staphylococcus aureus ATCC33591); 13 µM in [4] (MHB, read-out: Minimum Inhibitory Concentration (MIC) Bacillus cereus ATCC14579); 10 µM in assay [5] (MHB, read-out: Minimum Inhibitory Concentration (MIC) Listeria monocytogenes ATCC7644); 15 µM in [6] (MHB, read-out: Minimum Inhibitory Concentration (MIC) Enterococcus faecalis ATCC29212); 63 µM in assay [7] (MHB, read-out: Minimum Inhibitory Concentration (MIC) Escherichia coli ATTC25922). For the same compound, the MIC in assay [8] was 50 µM; in assay [9] (MHB, read-out: Minimum Inhibitory Concentration (MIC) Pseudomonas aeruginosa ATTC27853), above 125 µM. Besides, in assay [3] (MHB), the “Minimum Inhibitory Concentration (MIC) Staphylococcus aureus Clinical/MRSA” value was determined as 25 µM. Further, in assay [10], the “Fold reduction in MIC” value is 32.
With `C=CC[N+]12CCC(CC1)C(NC(=O)CCCCCCCCCCCCC)C2` (centres unmarked) [QC14-Ally], the MIC in assay [1] (setting [15]) was found to be 20 µM; in assay [1] (setting [16]) it was 20 µM; in assay [2] (setting [17]) it was 50 µM; in assay [3], 25 µM; in assay [4] (setting [18]) it was 25 µM; in [5] (setting [19]) it was 8 µM. In addition, the MIC in [6] (setting [20]) is 15 µM; in assay [7] (setting [21]) it was 50 µM; in [8] (Salmonella enterica), above 125 µM; in assay [9] (setting [22]) it was above 125 µM; in [11], 20 µM; in assay [12], 6 µM. The “inhibition of bacterial growth at ½ MIC” value in [13] is listed as “unable to inhibit bacterial growth”. The same compound came in with an inhibition at 12.5 µg/mL in assay [14] of around 100%.
On to `CCCCCCCCCCCCCC(=O)NC1C[N+]2(C)CCC1CC2` (centres unmarked) [QC14-Me], for which the MIC in assay [1] (setting [15]) amounted to 40 µM; in [1] (setting [16]), 40 µM; in assay [2] (setting [17]), 100 µM; in assay [3], 60 µM; in assay [4] (setting [18]), 50 µM; in [5] (setting [19]), 20 µM. Moreover, the MIC in assay [6] (setting [20]) was 30 µM; in [7] (setting [21]), 100 µM; in assay [8] (Salmonella enterica), above 125 µM; in assay [9] (setting [22]), above 125 µM; in [11] it was 40 µM; in assay [12], 12 µM. For the same compound, the “inhibition of bacterial growth at ½ MIC” value in [13] is recorded as “unable to inhibit bacterial growth”.
As for `C=CC[N+]12CCC(CC1)C(NC(=O)CCCCCCCCCCCCCCC)C2` (centres unmarked) [QC16-Ally], the MIC is 15 µM in assay [1] (setting [15]); 15 µM in assay [1] (setting [16]); 25 µM in assay [2] (setting [17]); 31 µM in assay [3]; above 100 µM in assay [4] (setting [18]); 16 µM in assay [5] (setting [19]). Further, the MIC was above 100 µM in assay [6] (setting [20]); above 100 µM in assay [7] (setting [21]); above 125 µM in [8] (Salmonella enterica); above 125 µM in [9] (setting [22]); 15 µM in [11]; 3 µM in assay [12]. The compound further yielded an inhibition at 12.5 µg/mL in [14] of around 100%.
For `CCCCCCCCCCCCCCCC(=O)NC1C[N+]2(C)CCC1CC2` (centres unmarked) [QC16-Me], the MIC in assay [1] (setting [15]) is 16 µM; in [1] (setting [16]) it was 16 µM; in [2] (setting [17]), 25 µM; in assay [3], 31 µM; in assay [4] (setting [18]), above 100 µM; in assay [5] (setting [19]), 8 µM. Further, the MIC was 100 µM in [6] (setting [20]); above 100 µM in assay [7] (setting [21]); above 125 µM in assay [8] (Salmonella enterica); above 125 µM in assay [9] (setting [22]); 16 µM in assay [11]; 6 µM in [12].
